Columns and labels:
[1] = introduced into SVZ; Application No. 10-2017-0015676; cited from earlier work
NP-C mice [2] = test: Cerebellar neural cells by Calbindin staining (Purkinje neuron); assay type: in vivo; details: VEGFNP-C mice; 10-week-old
Experimental: (§1) Administration of cyclodextrin (Sigma, H107) and VEGF-overexpressed neural stem cells was performed on a schedule as illustrated in FIG. 1. Specifically, NP-C mice or VEGFNP-C mice were subcutaneously injected with cyclodextrin by 4000 mg/kg from 1 week old. When the NP-C mice injected with the cyclodextrin were 4-week-old, a cannula was mounted in a subventricular zone (SVZ) for combined injection into the SVZ of the VEGF-overexpressed neural stem cells, and the VEGF-overexpressed neural stem cells (to 1×10^6 cell/3 ul) were injected into the SVZ twice a week. A cell injection rate was implanted at a flow rate of 0.3 μl/min.
(§2) The brain tissue (cortex or cerebellum) of a mouse was cut to a thickness of 50 μm using vibratome, and then cultured with anti-GFAP (rabbit, 1:500, DAKO) and anti-Calbindin (rabbit, 1:100, milipore). In addition, filipin staining (Polysciences, Inc.) was performed on tissues of each organ from the mouse to confirm the accumulation degree of cholesterol. Cortex, cerebellum, liver, lung, kidney, and spleen sites were analyzed using a laser scanning confocal microscope or an Olympus BX51 microscope equipped with Fluoview SV1000 imaging software (Olympus FV1000, Japan). A percentage of an area of a stained area to an area of total tissues was quantified using Metamorph software (Molecular Devices). […]

NP-C mice [3] = test: Inflammatory response of the cortex by GFAP (astrocyte) staining; assay type: in vivo; details: 10-week-old
Experimental: as §1, §2

NP-C mice [4] = test: Mobility by Rota-rod and Beam tests; assay type: in vivo; details: for each week age
Experimental: as §1
In order to confirm the mobility of a mouse in each test group, Rota-rod and Beam tests were performed. In the Rota-rod test (Ugo Basile, Comerio, VA, Italy), a Rota-rod movement was performed three times or more at a rotation rate of 4 rpm using a machine equipped with a rod of a diameter of 3 cm which was appropriately processed for providing a grip, and then an endurance time of a test animal was measured in units of second and an average value thereof was recorded. […] In the Beam test, a mouse was placed on a starting point of a rod of a width of 6 mm or 12 mm and then a time taken to move to an end point was measured. […]

NP-C mice [5] = test: Cholesterol accumulation by Amplex red assay and Filipin staining; assay type: in vivo; details: VEGFNP-C mice; 10-week-old; cortex, cerebellum and organs
Experimental: as §1, §2

NP-C mice [6] = test: Lipid accumulation (sphingosine, sphingomyelin) in cortex, cerebellum and organs, UPLC; assay type: in vivo; details: VEGFNP-C mice, 10-week-old
Experimental: as §1
The cortex, the cerebellum, and organs (liver, lung, kidney, spleen, etc.) of each mouse were extracted, added with a homogeneous buffer solution containing 50 mM HEPES (Invitrogen), a 150 mM sodium chloride solution (NaCl) (Sigma), 0.2% Igepal CA-630 (Sigma), and a protease inhibitor (Milipore), homogenized using a homogenizer, and then centrifuged at 13,000 rpm for 10 minutes. After 10 minutes, additional centrifugation was performed at 13,000 rpm for 30 minutes. […] A dry lipid extract obtained above was resuspended in 0.2% Igepal CA-630 (Sigma), and then the concentration of each lipid was measured using a UPLC system. […]

NP-C mice [7] = test: Survival rate of NP-C mice; assay type: in vivo; details: VEGFNP-C mice (brain cell-specific VEGF-overexpressed NP-C mice); cyclodextrin 4000 mg/kg once a week s.c.; compared to NP-C mice given cyclodextrin alone
From the text: (§3) In Balb/C (Orient, wild type), NPC mutant mice in which an NPC1 gene is deleted (RIKEN, received from Japan, NP-C mice; a weight was smaller than that of normal mice with the same week old, a serious mobility loss was shown from 4 to 6 week old to show tremors and seizures of the limbs, and a lifespan was approximately 9 to 10 weeks), and brain cell-specific VEGF-overexpressed NP-C mice (VEGFNP-C mice; produced through mating of VEGFtg mice overexpressing VEGF in a brain cell-specific promoter (received from University of Heidelberg, Germany, Yaoming Wang et al., (2005)) and NP-C mice, a lifespan was approximately 9 to 10 weeks like the NP-C mice, and brain inflammation and lipid accumulation were alleviated as compared to the NP-C mice), systems thereof were kept by genotyping through PCR. The mice were disposed in a test group by using a block randomization method. In order to eliminate prejudice, […]. All mice tests were approved by Kyungpook National University Institutional Animal Care and Use Committee (IACUC).
(§4) Administration of cyclodextrin (Sigma, H107) and VEGF-overexpressed neural stem cells was performed on a schedule as illustrated in FIG. 1. Specifically, NP-C mice or VEGFNP-C mice were subcutaneously injected with cyclodextrin by 4000 mg/kg from 1 week old. […]

NP-C mice [8] = test: Change in weight of NP-C mice; assay type: in vivo; details: VEGFNP-C mice; cyclodextrin 4000 mg/kg once a week s.c.; compared to NP-C mice given cyclodextrin alone
From the text: as §3, §4

NP-C mice [9] = test: Inflammatory response of the cerebellum by GFAP (astrocyte) staining; assay type: in vivo; details: 10-week-old
Experimental: as §1, §2

| Substance | medicinal effect by improvement of an SVZ environment [1] | reduced neural cells (Calbindin: Purkinje neuron) in the cerebellum (NP-C mice [2]) | inflammatory response (GFAP: astrocyte) in the cortex (NP-C mice [3]; NP-C mice) | inflammatory response (GFAP: astrocyte) in the cortex (NP-C mice [3]; VEGFNP-C mice) | mobility (Rota-rod and Beam tests) (NP-C mice [4]; NP-C mice) | mobility (Rota-rod and Beam tests) (NP-C mice [4]; VEGFNP-C mice) | accumulation of cholesterol (NP-C mice [5]) | sphingosine accumulated in the cortex and the cerebellum (NP-C mice [6]) | sphingomyelin accumulation (NP-C mice [6]; liver, lung, kidney, spleen, cortex and cerebellum) | survival rate (NP-C mice [7]) | weight (NP-C mice [8]) | inflammatory response (GFAP: astrocyte) in the cerebellum (NP-C mice [9]; NP-C mice) | inflammatory response (GFAP: astrocyte) in the cerebellum (NP-C mice [9]; VEGFNP-C mice) |
| --- | --- | --- | --- | --- | --- | --- | --- | --- | --- | --- | --- | --- | --- |
| VEGF | could not be achieved | – | – | – | – | – | – | – | – | – | – | – | – |
| cyclodextrin | – | most efficiently increased | somewhat alleviated | more effectively improved | improved mobility compared to NP-C mice | most effective | more reduced | most effectively reduced | most effectively reduced | significantly increased | significantly increased | alleviated to a certain level | more effectively alleviated |

From patent US20250302882A1, “PHARMACEUTICAL COMPOSITION FOR PREVENTING OR TREATING NEURODEGENERATIVE DISEASE, CONTAINING, AS ACTIVE INGREDIENTS, CYCLODEXTRIN AND STEM CELLS IN WHICH VEGF IS OVEREXPRESSED” (KYUNGPOOK NATIONAL UNIVERSITY INDUSTRY-ACADEMIC COOPERATION …, priority 2017, published 2025)
